# Measurements: patent US8389550B2, “Isoxazoles / O-pyridines with ethyl and ethenyl linker” (Hoffmann-La Roche Inc., priority 2009, dated 2013)
# Molecular target: T1, human GABA A α5 receptor (α5β3γ2) (Homo sapiens, UniProt P18507+P31644)
# T1 construct: expressed in transfected cells; host or cells: HEK293 cells, transiently transfected; membranes prepared from cell pellets
# Experiment: [3H]flumazenil competition binding assay, HEK293 cells expressing human receptors
# Details: displacement of [3H]flumazenil (0.5 nM); HEK293 cells transiently expressing human α5β3γ2; means of two determinations; read-out: hKi GABA A α5
# Experimental: Membrane Preparation and Binding Assay
# The affinity of compounds at GABA A receptor subtypes was measured by competition for [3H]flumazenil (85 Ci/mmol; Roche) binding to HEK293 cells expressing rat (stably transfected) or human (transiently transfected) receptors of composition α1β3γ2, α2β3γ2, α3β3γ2 and α5β3γ2.
# Cell pellets were suspended in Krebs-tris buffer (4.8 mM KCl, 1.2 mM CaCl2, 1.2 mM MgCl2, 120 mM NaCl, 15 mM Tris; pH 7.5; binding assay buffer), homogenized by polytron for ca. 20 sec on ice and centrifuged for 60 min at 4° C. (50000 g; Sorvall, rotor: SM24=20000 rpm). The cell pellets were resuspended in Krebs-tris buffer and homogenized by polytron for ca. 15 sec on ice. Protein was measured (Bradford method, Bio-Rad) and aliquots of 1 mL were prepared and stored at −80° C.
# Radioligand binding assays were carried out in a volume of […] (96-well plates) which contained […] of cell membranes, [3H]flumazenil at a concentration of 1 nM for α1, α2, α3 subunits and 0.5 nM for α5 subunits and the test compound in the range of […]. Nonspecific binding was defined by 10^−5 M diazepam and typically represented less than 5% of the total binding. Assays were incubated to equilibrium for 1 hour at 4° C. and harvested onto GF/C uni-filters (Packard) by filtration using a Packard harvester and washing with ice-cold wash buffer (50 mM Tris; pH 7.5). After drying, filter-retained radioactivity was detected by liquid scintillation counting. Ki values were calculated using Excel-Fit (Microsoft) and are the means of two determinations.
# Representative test results, obtained by the above described assay measuring binding affinity to HEK293 cells expressing human (h) receptors, are shown in table 1 below: […]
row,SMILES,Ki
1,"CCCCc1noc(C)c1/C=C/c1ccc(C(=O)N[C@@H](C)CO)cn1 [Example 14, 6-[(E)-2-(3-Butyl-5-methyl-isoxazol-4-yl)-vinyl]-N—((S)-2-hydroxy-1-methyl-ethyl)-nicotinamide]",14.1 nM
2,"CCCCc1noc(C)c1/C=C/c1ccc(C(=O)NC(CO)CO)cn1 [Example 15, 6-[(E)-2-(3-Butyl-5-methyl-isoxazol-4-yl)-vinyl]-N-(2-hydroxy-1-hydroxymethyl-ethyl)-nicotinamide]",5.3 nM
3,"CCCCc1noc(C)c1/C=C/c1ccc(C(=O)NC2CCOC2)cn1 (stereo not drawn) [Example 9, 6-[(E)-2-(3-Butyl-5-methyl-isoxazol-4-yl)-vinyl]-N-(tetrahydro-furan-3-yl)-nicotinamide]",8.9 nM
4,"COC(=O)c1ccc(/C=C/c2c(-c3ccccc3)noc2C)nc1 [Example 1, 6-[(E)-2-(5-Methyl-3-phenyl-isoxazol-4-yl)-vinyl]nicotinic acid methyl ester]",13.9 nM
5,"CCCCc1noc(C)c1/C=C/c1ccc(C(=O)NC(C)C)cn1 [Example 8, 6-[(E)-2-(3-Butyl-5-methyl-isoxazol-4-yl)-vinyl]-N-isopropyl-nicotinamide]",18.6 nM
6,"Cc1onc(-c2ccccc2)c1/C=C/c1ccc(C(=O)NC2CCOCC2)cn1 [Example 3, 6-[(E)-2-(5-Methyl-3-phenyl-isoxazol-4-yl)-vinyl]-N-(tetrahydro-pyran-4-yl)-nicotinamide]",6 nM
7,"CCCCc1noc(C)c1CCc1ccc(C(=O)NC(C)CO)cn1 (stereo not drawn) [Example 17, 6-[2-(3-Butyl-5-methyl-isoxazol-4-yl)-ethyl]-N-(2-hydroxy-1-methyl-ethyl)-nicotinamide]",49.4 nM
8,"Cc1onc(-c2ccccc2)c1/C=C/c1ccc(C(=O)NCCO)cn1 [Example 4, N-(2-Hydroxy-ethyl)-6-[(E)-2-(5-methyl-3-phenyl-isoxazol-4-yl)-vinyl]-nicotinamide]",2 nM
9,"CCCCc1noc(C)c1/C=C/c1ccc(C(=O)NC2CCOCC2)cn1 [Example 12, 6-[(E)-2-(3-Butyl-5-methyl-isoxazol-4-yl)-vinyl]-N-(tetrahydro-pyran-4-yl)-nicotinamide]",12.9 nM
10,"Cc1onc(-c2ccccc2)c1/C=C/c1ccc(C(=O)NC(C)C)cn1 [Example 2, N-Isopropyl-6-[(E)-2-(5-methyl-3-phenyl-isoxazol-4-yl)-vinyl]-nicotinamide]",5 nM

# Continued by falling Ki, values first:
row,Ki,SMILES
1,58.6 nM,"CCCCc1noc(C)c1CCc1ccc(C(=O)NC2CCOC2)cn1 (stereo not drawn) [Example 18, 6-[2-(3-Butyl-5-methyl-isoxazol-4-yl)-ethyl]-N-(tetrahydro-furan-3-yl)-nicotinamide]"
2,57.6 nM,"Cc1onc(-c2ccccc2)c1CCc1ccc(C(=O)NC(C)C)cn1 [Example 16, N-Isopropyl-6-[2-(5-methyl-3-phenyl-isoxazol-4-yl)-ethyl]-nicotinamide]"
3,38.6 nM,"Cc1onc(-c2ccccc2)c1/C=C/c1ccc(C(=O)O)cn1 [Example 6, 6-[(E)-2-(5-Methyl-3-phenyl-isoxazol-4-yl)-vinyl]-nicotinic acid]"
4,16.3 nM,"CCCCc1noc(C)c1/C=C/c1ccc(C(=O)NCC(C)(C)O)cn1 [Example 11, 6-[(E)-2-(3-Butyl-5-methyl-isoxazol-4-yl)-vinyl]-N-(2-hydroxy-2-methyl-propyl)-nicotinamide]"
5,12.2 nM,"CCCCc1noc(C)c1/C=C/c1ccc(C(=O)N[C@H](C)CO)cn1 [Example 13, 6-[(E)-2-(3-Butyl-5-methyl-isoxazol-4-yl)-vinyl]-N—((R)-2-hydroxy-1-methyl-ethyl)-nicotinamide]"
6,8.2 nM,"CCCCc1noc(C)c1/C=C/c1ccc(C(=O)NC(C)CO)cn1 (stereo not drawn) [Example 10, 6-[(E)-2-(3-Butyl-5-methyl-isoxazol-4-yl)-vinyl]-N-(2-hydroxy-1-methyl-ethyl)-nicotinamide]"
7,8.1 nM,"CCCCc1noc(C)c1/C=C/c1ccc(C(=O)OC)cn1 [Example 7, 6-[(E)-2-(3-Butyl-5-methyl-isoxazol-4-yl)-vinyl]nicotinic acid methyl ester]"
8,2.9 nM,"Cc1onc(-c2ccccc2)c1/C=C/c1ccc(C(=O)NC(C)CO)cn1 (stereo not drawn) [Example 5, N-(2-Hydroxy-1-methyl-ethyl)-6-[(E)-2-(5-methyl-3-phenyl-isoxazol-4-yl)-vinyl]-nicotinamide]"
